Laboratory results: PubChem BioAssay AID1259407 (Chemical Carcinogenesis Research Information System (CCRIS), 2018)
Calls of active or inactive are those of the source. How the calls were made is not given here.

Tested on: CCRIS mutagenicity, Ames/micronucleus/aberration tests
Experiment: CCRIS mutagenicity studies
[1] = Test System: AMES SALMONELLA TYPHIMURIUM, Strain/Indicator: TA100, Metabolic Activation: NONE, Method: STANDARD PLATE

Nc1c(Cl)cc(Cl)cc1Cl
mutagenic call (End Point: IN VITRO CHROMOSOMAL ABERRATIONS, Test System: CHL CELLS, Metabolic Activation: NONE): inactive; negative
mutagenic call (End Point: IN VITRO CHROMOSOMAL ABERRATIONS, Test System: CHL CELLS, Metabolic Activation: RAT, LIVER, S-9, SODIUM PHENOBARBITAL AND 5,6-BENZOFLAVONE): inactive; negative
mutagenic call (Test System: AMES SALMONELLA TYPHIMURIUM, Strain/Indicator: TA97, Metabolic Activation: HAMSTER, LIVER, S-9, AROCLOR 1254 (10%), Method: PREINCUBATION): inactive; negative
mutagenic call (Test System: AMES SALMONELLA TYPHIMURIUM, Strain/Indicator: TA97, Metabolic Activation: HAMSTER, LIVER, S-9, AROCLOR 1254 (30%), Method: PREINCUBATION): inactive; negative
mutagenic call (Test System: AMES SALMONELLA TYPHIMURIUM, Strain/Indicator: TA97, Metabolic Activation: NONE, Method: PREINCUBATION): inactive; negative
mutagenic call (Test System: AMES SALMONELLA TYPHIMURIUM, Strain/Indicator: TA97, Metabolic Activation: RAT, LIVER, S-9, AROCLOR 1254 (10%), Method: PREINCUBATION): inactive; negative
mutagenic call (Test System: AMES SALMONELLA TYPHIMURIUM, Strain/Indicator: TA97, Metabolic Activation: RAT, LIVER, S-9, AROCLOR 1254 (30%), Method: PREINCUBATION): inactive; negative
mutagenic call (Test System: AMES SALMONELLA TYPHIMURIUM, Strain/Indicator: TA98, Metabolic Activation: HAMSTER, LIVER, S-9, AROCLOR 1254 (10%), Method: PREINCUBATION): inactive; negative
mutagenic call (Test System: AMES SALMONELLA TYPHIMURIUM, Strain/Indicator: TA98, Metabolic Activation: HAMSTER, LIVER, S-9, AROCLOR 1254 (30%), Method: PREINCUBATION): inactive; negative
mutagenic call (Test System: AMES SALMONELLA TYPHIMURIUM, Strain/Indicator: TA98, Metabolic Activation: NONE, Method: PREINCUBATION): inactive; negative
mutagenic call (Test System: AMES SALMONELLA TYPHIMURIUM, Strain/Indicator: TA98, Metabolic Activation: RAT, LIVER, S-9, AROCLOR 1254 (10%), Method: PREINCUBATION): inactive; negative
mutagenic call (Test System: AMES SALMONELLA TYPHIMURIUM, Strain/Indicator: TA98, Metabolic Activation: RAT, LIVER, S-9, AROCLOR 1254 (30%), Method: PREINCUBATION): inactive; negative
mutagenic call (Test System: AMES SALMONELLA TYPHIMURIUM, Strain/Indicator: TA100, Metabolic Activation: HAMSTER, LIVER, S-9, AROCLOR 1254 (5%), Method: PREINCUBATION): inactive; negative
mutagenic call (Test System: AMES SALMONELLA TYPHIMURIUM, Strain/Indicator: TA100, Metabolic Activation: HAMSTER, LIVER, S-9, AROCLOR 1254 (10%), Method: PREINCUBATION): inactive; negative
mutagenic call (Test System: AMES SALMONELLA TYPHIMURIUM, Strain/Indicator: TA100, Metabolic Activation: HAMSTER, LIVER, S-9, AROCLOR 1254 (30%), Method: PREINCUBATION): inactive; negative
mutagenic call (Test System: AMES SALMONELLA TYPHIMURIUM, Strain/Indicator: TA100, Metabolic Activation: NONE, Method: PREINCUBATION): inactive; negative
mutagenic call (Test System: AMES SALMONELLA TYPHIMURIUM, Strain/Indicator: TA100, Metabolic Activation: RAT, LIVER, S-9, AROCLOR 1254 (5%), Method: PREINCUBATION): inactive; negative
mutagenic call (Test System: AMES SALMONELLA TYPHIMURIUM, Strain/Indicator: TA100, Metabolic Activation: RAT, LIVER, S-9, AROCLOR 1254 (10%), Method: PREINCUBATION): inactive; negative
mutagenic call (Test System: AMES SALMONELLA TYPHIMURIUM, Strain/Indicator: TA100, Metabolic Activation: RAT, LIVER, S-9, AROCLOR 1254 (30%), Method: PREINCUBATION): inactive; negative
mutagenic call (Test System: AMES SALMONELLA TYPHIMURIUM, Strain/Indicator: TA1535, Metabolic Activation: HAMSTER, LIVER, S-9, AROCLOR 1254 (10%), Method: PREINCUBATION): inactive; negative
mutagenic call (Test System: AMES SALMONELLA TYPHIMURIUM, Strain/Indicator: TA1535, Metabolic Activation: HAMSTER, LIVER, S-9, AROCLOR 1254 (30%), Method: PREINCUBATION): inactive; negative
mutagenic call (Test System: AMES SALMONELLA TYPHIMURIUM, Strain/Indicator: TA1535, Metabolic Activation: NONE, Method: PREINCUBATION): inactive; negative
mutagenic call (Test System: AMES SALMONELLA TYPHIMURIUM, Strain/Indicator: TA1535, Metabolic Activation: RAT, LIVER, S-9, AROCLOR 1254 (10%), Method: PREINCUBATION): inactive; negative
mutagenic call (Test System: AMES SALMONELLA TYPHIMURIUM, Strain/Indicator: TA1535, Metabolic Activation: RAT, LIVER, S-9, AROCLOR 1254 (30%), Method: PREINCUBATION): inactive; negative
mutagenic call (Test System: UDS RODENT HEPATOCYTES, Strain/Indicator: THY INCORP (NON-S-PHASE), Metabolic Activation: NONE, Method: AUTORADIOGRAPHY): inactive; negative

ONc1ncnc2c1ncn2Cc1ccccc1
mutagenic call (Test System: AMES SALMONELLA TYPHIMURIUM, Strain/Indicator: TA97, Metabolic Activation: NONE, Method: STANDARD PLATE): active; positive
mutagenic call (Test System: AMES SALMONELLA TYPHIMURIUM, Strain/Indicator: TA97, Metabolic Activation: RAT, LIVER, S-9, AROCLOR 1254, Method: STANDARD PLATE): active; positive
mutagenic call (Test System: AMES SALMONELLA TYPHIMURIUM, Strain/Indicator: TA98, Metabolic Activation: NONE, Method: STANDARD PLATE): inactive; negative
mutagenic call (Test System: AMES SALMONELLA TYPHIMURIUM, Strain/Indicator: TA98, Metabolic Activation: RAT, LIVER, S-9, AROCLOR 1254, Method: STANDARD PLATE): active; positive
mutagenic call [1]: active; positive
mutagenic call (Test System: AMES SALMONELLA TYPHIMURIUM, Strain/Indicator: TA100, Metabolic Activation: RAT, LIVER, S-9, AROCLOR 1254, Method: STANDARD PLATE): active; positive

COC(=O)/C=C/C(C)=C\C=C\C(C)=C\C=C\C=C(C)\C=C\C=C(C)\C=C\C(=O)O
mutagenic call (Test System: Mouse lymphoma, Strain/Indicator: L5178Y (tk+/tk-), Metabolic Activation: None, Method: Suspension/plate): inactive; negative
mutagenic call (Test System: Mouse lymphoma, Strain/Indicator: L5178Y (tk+/tk-), Metabolic Activation: Rat, Liver, S-9, Aroclor 1254, Method: Suspension/plate): inactive; negative

O=C(Nc1snc2ccccc12)c1ccccc1
mutagenic call [1]: inactive; negative
mutagenic call (Test System: AMES SALMONELLA TYPHIMURIUM, Strain/Indicator: TA100, Metabolic Activation: S-9, Method: STANDARD PLATE): active; positive
mutagenic call (Test System: AMES SALMONELLA TYPHIMURIUM, Strain/Indicator: TA1537, Metabolic Activation: NONE, Method: STANDARD PLATE): inactive; negative
mutagenic call (Test System: AMES SALMONELLA TYPHIMURIUM, Strain/Indicator: TA1537, Metabolic Activation: S-9, Method: STANDARD PLATE): inactive; negative
